Measured values reported in ChEMBL document CHEMBL3885881, “DrugMatrix”.

Species: Rattus norvegicus
Experiment: DrugMatrix - Regimen: Daily Repeat
Format: toxicity, organism-based, Sprague-Dawley
Design: regimen Daily Repeat, gender Male, age 6-8 weeks
Details: in vivo, po, 21 mg/kg, route oral GAVAGE, dose level High, […]; for ABSOLUTE BASOPHIL / ABSOLUTE EOSINOPHIL / ABSOLUTE LYMPHOCYTE / ABSOLUTE MONOCYTE / ABSOLUTE SEGMENTED NEUTROPHIL / BASOPHIL / EOSINOPHIL / HEMATOCRIT / HEMOGLOBIN / LEUKOCYTE COUNT / LYMPHOCYTE / MEAN CORPUSCULAR HEMOGLOBIN / MEAN CORPUSCULAR HEMOGLOBIN CONCENTRATION / MEAN CORPUSCULAR VOLUME / MONOCYTE / NEUTROPHIL / NUCLEATED RED BLOOD CELLS / PLATELET COUNT: tissue Blood; for ALANINE AMINOTRANSFERASE / ALBUMIN / ALKALINE PHOSPHATASE / ASPARTATE AMINOTRANSFERASE / BLOOD UREA NITROGEN / CARBON DIOXIDE / CHLORIDE / CHOLESTEROL / CREATINE PHOSPHOKINASE / CREATININE / GLUCOSE / LACTATE DEHYDROGENASE / LIPASE / PHOSPHORUS / POTASSIUM / SODIUM / TOTAL BILIRUBIN / TOTAL PROTEIN / URIC ACID: tissue Plasma

**Q.** For `O=C(CCCN1CCC(O)(c2ccc(Cl)cc2)CC1)c1ccc(F)cc1` [HALOPERIDOL], which “ABSOLUTE BASOPHIL” value (72 h, time 3 day) is on record?
**A.** Its value is 0 CELLS/uL.

**Q.** And the “ABSOLUTE EOSINOPHIL” value (72 h, time 3 day)?
**A.** The value was 71.67 CELLS/uL.

**Q.** And the “ABSOLUTE LYMPHOCYTE” value (72 h, time 3 day)?
**A.** The value was 13503.67 CELLS/uL.

**Q.** And the “ABSOLUTE MONOCYTE” value (72 h, time 3 day)?
**A.** The value was 143.33 CELLS/uL.

**Q.** What about the “ABSOLUTE SEGMENTED NEUTROPHIL” value (72 h, time 3 day) of the same molecule?
**A.** The value was 1014.67 CELLS/uL.

**Q.** What about the BASOPHIL (72 h, time 3 day) of the same molecule?
**A.** The BASOPHIL was 0%.

**Q.** And the EOSINOPHIL (72 h, time 3 day)?
**A.** The EOSINOPHIL was 0.33%.

**Q.** And the HEMATOCRIT (72 h, time 3 day)?
**A.** Its HEMATOCRIT is 37.23%.

**Q.** And the HEMOGLOBIN (72 h, time 3 day)?
**A.** The HEMOGLOBIN was 14.77 G/DL.

**Q.** What about the “LEUKOCYTE COUNT” value (72 h, time 3 day) of the same molecule?
**A.** Its value is 14.73 x10E3/uL.

**Q.** What about the LYMPHOCYTE (72 h, time 3 day) of the same molecule?
**A.** The LYMPHOCYTE was 92.33%.

**Q.** What about the “MEAN CORPUSCULAR HEMOGLOBIN” value (72 h, time 3 day) of the same molecule?
**A.** Its value is 23.97 pg.

**Q.** And the “MEAN CORPUSCULAR HEMOGLOBIN CONCENTRATION” value (72 h, time 3 day)?
**A.** The value was 39.67 G/DL.

**Q.** What about the “MEAN CORPUSCULAR VOLUME” value (72 h, time 3 day) of the same molecule?
**A.** Its value is 60.4 fL.

**Q.** What about the MONOCYTE (72 h, time 3 day) of the same molecule?
**A.** Its MONOCYTE is 0.67%.

**Q.** And the NEUTROPHIL (72 h, time 3 day)?
**A.** Its NEUTROPHIL is 6.67%.

**Q.** What about the “NUCLEATED RED BLOOD CELLS” value (72 h, time 3 day) of the same molecule?
**A.** The value was 0 /100WBC.

**Q.** And the “PLATELET COUNT” value (72 h, time 3 day)?
**A.** Its value is 1422.33 x10E3/uL.

**Q.** And the “ALANINE AMINOTRANSFERASE” value (72 h, time 3 day)?
**A.** The value was 42.33 u/L.

**Q.** What about the ALBUMIN (72 h, time 3 day) of the same molecule?
**A.** Its ALBUMIN is 4.2 G/DL.

**Q.** What about the “ALKALINE PHOSPHATASE” value (72 h, time 3 day) of the same molecule?
**A.** Its value is 358.33 u/L.

**Q.** What about the “ASPARTATE AMINOTRANSFERASE” value (72 h, time 3 day) of the same molecule?
**A.** Its value is 92.33 u/L.

**Q.** What about the “BLOOD UREA NITROGEN” value (72 h, time 3 day) of the same molecule?
**A.** The value was 16.33 mg/dL.

**Q.** What about the “CARBON DIOXIDE” value (72 h, time 3 day) of the same molecule?
**A.** Its value is 22.67 mmol/L.

**Q.** What about the CHLORIDE (72 h, time 3 day) of the same molecule?
**A.** The CHLORIDE was 103.67 MEQ/L.

**Q.** What about the CHOLESTEROL (72 h, time 3 day) of the same molecule?
**A.** The CHOLESTEROL was 58 mg/dL.

**Q.** What about the “CREATINE PHOSPHOKINASE” value (72 h, time 3 day) of the same molecule?
**A.** Its value is 803 u/L.

**Q.** What about the CREATININE (72 h, time 3 day) of the same molecule?
**A.** The CREATININE was 0.18 mg/dL.

**Q.** And the GLUCOSE (72 h, time 3 day)?
**A.** The GLUCOSE was 168 mg/dL.

**Q.** What about the “LACTATE DEHYDROGENASE” value (72 h, time 3 day) of the same molecule?
**A.** The value was 310 u/L.

**Q.** And the LIPASE (72 h, time 3 day)?
**A.** The LIPASE was 11.33 u/L.

**Q.** And the PHOSPHORUS (72 h, time 3 day)?
**A.** The PHOSPHORUS was 12.4 mg/dL.

**Q.** What about the POTASSIUM (72 h, time 3 day) of the same molecule?
**A.** Its POTASSIUM is 6.38 MEQ/L.

**Q.** And the SODIUM (72 h, time 3 day)?
**A.** The SODIUM was 143.4 MEQ/L.

**Q.** What about the “TOTAL BILIRUBIN” value (72 h, time 3 day) of the same molecule?
**A.** Its value is 0.13 mg/dL.

**Q.** What about the “TOTAL PROTEIN” value (72 h, time 3 day) of the same molecule?
**A.** The value was 5.9 G/DL.

**Q.** What about the “URIC ACID” value (72 h, time 3 day) of the same molecule?
**A.** Its value is 2.07 mg/dL.

**Q.** And the “ABSOLUTE BASOPHIL” value (120 h, time 5 day)?
**A.** The value was 0 CELLS/uL.

**Q.** And the “ABSOLUTE EOSINOPHIL” value (120 h, time 5 day)?
**A.** The value was 46.33 CELLS/uL.

**Q.** And the “ABSOLUTE LYMPHOCYTE” value (120 h, time 5 day)?
**A.** The value was 13529.67 CELLS/uL.

**Q.** What about the “ABSOLUTE MONOCYTE” value (120 h, time 5 day) of the same molecule?
**A.** The value was 94 CELLS/uL.

**Q.** What about the “ABSOLUTE SEGMENTED NEUTROPHIL” value (120 h, time 5 day) of the same molecule?
**A.** The value was 1530 CELLS/uL.

**Q.** And the BASOPHIL (120 h, time 5 day)?
**A.** The BASOPHIL was 0%.

**Q.** And the EOSINOPHIL (120 h, time 5 day)?
**A.** Its EOSINOPHIL is 0.33%.

**Q.** And the HEMATOCRIT (120 h, time 5 day)?
**A.** The HEMATOCRIT was 35.97%.

**Q.** What about the HEMOGLOBIN (120 h, time 5 day) of the same molecule?
**A.** Its HEMOGLOBIN is 14.07 G/DL.

**Q.** What about the “LEUKOCYTE COUNT” value (120 h, time 5 day) of the same molecule?
**A.** The value was 15.2 x10E3/uL.

**Q.** And the LYMPHOCYTE (120 h, time 5 day)?
**A.** Its LYMPHOCYTE is 88.67%.

**Q.** And the “MEAN CORPUSCULAR HEMOGLOBIN” value (120 h, time 5 day)?
**A.** The value was 23.57 pg.

**Q.** And the “MEAN CORPUSCULAR HEMOGLOBIN CONCENTRATION” value (120 h, time 5 day)?
**A.** Its value is 39.13 G/DL.

**Q.** And the “MEAN CORPUSCULAR VOLUME” value (120 h, time 5 day)?
**A.** Its value is 60.3 fL.

**Q.** And the MONOCYTE (120 h, time 5 day)?
**A.** Its MONOCYTE is 0.67%.

**Q.** And the NEUTROPHIL (120 h, time 5 day)?
**A.** Its NEUTROPHIL is 10.33%.

**Q.** And the “NUCLEATED RED BLOOD CELLS” value (120 h, time 5 day)?
**A.** Its value is 0.33 /100WBC.

**Q.** What about the “PLATELET COUNT” value (120 h, time 5 day) of the same molecule?
**A.** The value was 1209.33 x10E3/uL.

**Q.** And the “ALANINE AMINOTRANSFERASE” value (120 h, time 5 day)?
**A.** The value was 53 u/L.

**Q.** What about the ALBUMIN (120 h, time 5 day) of the same molecule?
**A.** The ALBUMIN was 4.13 G/DL.

**Q.** What about the “ALKALINE PHOSPHATASE” value (120 h, time 5 day) of the same molecule?
**A.** Its value is 352.33 u/L.

**Q.** What about the “ASPARTATE AMINOTRANSFERASE” value (120 h, time 5 day) of the same molecule?
**A.** Its value is 80.33 u/L.

**Q.** What about the “BLOOD UREA NITROGEN” value (120 h, time 5 day) of the same molecule?
**A.** The value was 17.33 mg/dL.

**Q.** And the “CARBON DIOXIDE” value (120 h, time 5 day)?
**A.** Its value is 23 mmol/L.

**Q.** What about the CHLORIDE (120 h, time 5 day) of the same molecule?
**A.** The CHLORIDE was 103.33 MEQ/L.

**Q.** And the CHOLESTEROL (120 h, time 5 day)?
**A.** The CHOLESTEROL was 69 mg/dL.

**Q.** And the “CREATINE PHOSPHOKINASE” value (120 h, time 5 day)?
**A.** Its value is 224.67 u/L.

**Q.** What about the CREATININE (120 h, time 5 day) of the same molecule?
**A.** Its CREATININE is 0.18 mg/dL.

**Q.** And the GLUCOSE (120 h, time 5 day)?
**A.** Its GLUCOSE is 201.67 mg/dL.

**Q.** And the “LACTATE DEHYDROGENASE” value (120 h, time 5 day)?
**A.** The value was 239 u/L.

**Q.** What about the LIPASE (120 h, time 5 day) of the same molecule?
**A.** The LIPASE was 11.33 u/L.

**Q.** What about the PHOSPHORUS (120 h, time 5 day) of the same molecule?
**A.** The PHOSPHORUS was 11.33 mg/dL.

**Q.** What about the POTASSIUM (120 h, time 5 day) of the same molecule?
**A.** The POTASSIUM was 6.19 MEQ/L.

**Q.** And the SODIUM (120 h, time 5 day)?
**A.** The SODIUM was 143.37 MEQ/L.

**Q.** What about the “TOTAL BILIRUBIN” value (120 h, time 5 day) of the same molecule?
**A.** Its value is 0.2 mg/dL.

**Q.** What about the “TOTAL PROTEIN” value (120 h, time 5 day) of the same molecule?
**A.** The value was 5.63 G/DL.

**Q.** What about the “URIC ACID” value (120 h, time 5 day) of the same molecule?
**A.** The value was 1.4 mg/dL.
